Source: patent US12448388B2, “PRMT5 inhibitors and uses thereof” (Gilead Sciences, Inc., priority 2023, dated 2025)
Converted amounts (≈) assume the structure as drawn. Like-named read-outs stand apart in the source and are kept apart here.

How the values were obtained:
[1] = Cell viability assay (CellTiter-Glo, 7 days), HCT116 WT; type: cell-based; conditions: human, HCT116 WT cells, 7 days of treatment, CTG
Outline: (§1)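 Read-out was CellTiter-Glo luminescence after a 7-day incubation (37 °C, 5% CO2) of HCT116 cells, MTAP-deleted or WT, on dose-response compound plates. CC50 values come from each line; where marked *, selectivity is overstated because poor solubility impaired the WT CC50 measurement.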

[2] = PBS solubility (kinetic solubility from DMSO stocks); type: physicochemical; conditions: 22 °C, aqueous buffer, kinetic from dmso stock; 1x PBS pH 7.4, 1.0% DMSO, 24-hour incubation at ambient temperature
Outline: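 Kinetic solubility in 1× PBS pH 7.4 with 1.0% final DMSO, maximum theoretical concentration 100 μM from 10 mM stock. After 24 h at ambient temperature (20.8-24.0 °C) the samples were vacuum-filtered and filtrates quantified by nitrogen detection against a calibration curve. Values were background-corrected and reported in μM and μg/mL.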

[3] = Pharmacokinetics in cassette in male Sprague-Dawley rats for Kp measurement; type: in vivo; conditions: 1 mg/kg, intravenous
[4] = test system: HCT116 MTAP-deleted cell lines; test: Cell viability assay (CellTiter-Glo, 7 days), HCT116 MTAP-deleted; type: cell-based; conditions: for Selectivity: HCT116 WT CC50 versus HCT116 MTAP^del CC50; for plasma-adjusted CC50 (paCC50): paCC50 = CC50-HCT116-MTAP^del * (% free CCM/% free human plasma); for CC50: Homo sapiens, HCT116 MTAP-deleted
Outline: as §1

[5] = brain Kp = [brain]/[plasma], rat, read-out: Rat brain Kp
[6] = brain Kpu,u = Kp * (plasma free/rat brain free), read-out: Rat brain Kpu,u
[7] = HCT-116, 168 h, 7 days of treatment, CTG, read-out: CC50-HCT116-MTAP^del
[8] = HCT-116, cell viability, class symbols, read-out: CC50

solubility at 24 h [2]	Kp [3, 5]	Kp [3, 6]	SMILES	CC50 at 7 days [1]	Selectivity [4]	plasma-adjusted CC50 (paCC50) ([4]; HCT-116)	CC50 [4, 7]	CC50 [4, 8]	CC50 ([4]; HCT-116, cell viability assay, class symbols, read-out: CC50)
1.7 µM (≈ 0.8 µg/mL)	0.37	0.11	Nc1nc2cnc(C(=O)N3CCC[C@@H]4Oc5cc(OC(F)(F)F)ccc5[C@@H]43)cc2n2cncc12 [Ff-341, (4-aminoimidazo[1,5-a]pyrido[3,4-e]pyrazin-8-yl)((4aS,9bS)-7-(trifluoromethoxy)-3,4,4a,9b-tetrahydrobenzofuro[3,2-b]pyridin-1(2H)-yl)methanone]	0.71 µM	79	0.15 µM	0.009 µM	< 0.1 µM	–
34.9 µM (≈ 15.9 µg/mL)	0.32	–	Nc1nc2cnc(C(=O)N3CC[C@H]4C[C@@H]3c3ccc(C(F)(F)F)cc3O4)cc2n2cncc12 [Ff-367, (4-aminoimidazo[1,5-a]pyrido[3,4-e]pyrazin-8-yl)((2S,6R)-9-(trifluoromethyl)-3,4-dihydro-2H-2,6-methanobenzo[b][1,5]oxazocin-5(6H)-yl)methanone]	0.925 µM	77	0.199 µM	0.012 µM	< 0.1 µM	–
< 1 µM	0.67	0.15	Cc1ncn2c1c(N)nc1cnc(C(=O)N3CCC[C@@H]4Oc5cc(C(F)(F)F)ccc5[C@@H]43)cc12 [Ff-499, (4-amino-3-methylimidazo[1,5-a]pyrido[3,4-e]pyrazin-8-yl)((4aS,9bS)-7-(trifluoromethyl)-3,4,4a,9b-tetrahydrobenzofuro[3,2-b]pyridin-1(2H)-yl)methanone]	0.897 µM	69	0.168 µM	0.013 µM	–	< 0.1 µM
